Laboratory results reported in ChEMBL document CHEMBL1201862, “PubChem BioAssay data set” (2004).
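Protocol summary: plate cells (96-well), add compound at 5 concentrations, incubate 48 h, interpolate endpoints linearly. GI50 = concentration required for 50% inhibition of growth.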 Activity calls are given as the source filed them. Cut-off read from the data, not from the text of the source: active = GI50 up to about 1.1 µM and inactive = higher. Where a SMILES comes first, the peptide text is derived from it. [ ]: non-standard residue; d: D form. The star is where a group is joined. Hyp = O=C(O)[CH]1C[CH](O)CN1; Cbz = O=C(OCc1ccccc1)*

Tests used:
Assay in all cases: growth of human tumour cells (NCI), 48 h
BT-549 = tested on: BT-549
CCRF-CEM = tested on: CCRF-CEM
EKVX = tested on: EKVX
HL-60 = tested on: HL-60
HT-29 = tested on: HT-29
NCI/ADR-RES = tested on: NCI/ADR-RES
OVCAR-3 = tested on: OVCAR-3
OVCAR-4 = tested on: OVCAR-4
RPMI-8226 = tested on: RPMI-8226
RXF 393 = tested on: RXF 393
SF-539 = tested on: SF-539
SK-MEL-28 = tested on: SK-MEL-28
SN12C = tested on: SN12C
SNB-75 = tested on: SNB-75
SW-620 = tested on: SW-620
U-251 = tested on: U-251
UO-31 = tested on: UO-31
HOP-92 = tested on: HOP-92
OVCAR-5 = tested on: OVCAR-5

| Compound | GI50 (BT-549) | GI50 (CCRF-CEM) | GI50 (EKVX) | GI50 (HL-60) | GI50 (HT-29) | GI50 (NCI/ADR-RES) | GI50 (OVCAR-3) | GI50 (OVCAR-4) | GI50 (RPMI-8226) | GI50 (RXF 393) | GI50 (SF-539) | GI50 (SK-MEL-28) | GI50 (SN12C) | GI50 (SNB-75) | GI50 (SW-620) | GI50 (U-251) | GI50 (UO-31) | GI50 (HOP-92) | GI50 (OVCAR-5) |
| --- | --- | --- | --- | --- | --- | --- | --- | --- | --- | --- | --- | --- | --- | --- | --- | --- | --- | --- | --- |
| O=[N+]([O-])c1ccc(Cl)cc1N/N=C/c1ccnc2ccccc12 | > 100 µM (inactive) | > 100 µM (inactive) | 22.8 µM (inactive) | > 100 µM (inactive) | > 100 µM (inactive) | 53.3 µM (inactive) | > 100 µM (inactive) | > 100 µM (inactive) | > 100 µM (inactive) | 36.9 µM (inactive) | 21.9 µM (inactive) | > 100 µM (inactive) | > 100 µM (inactive) | 31.1 µM (inactive) | > 100 µM (inactive) | 17.5 µM (inactive) | > 100 µM (inactive) | – | – |
| CC(=O)Nc1ccc(/N=C2\C(c3ccccc3)=C(SC3=C(c4ccccc4)/C(=N\c4ccc(NC(C)=O)cc4)c4ccccc43)c3ccccc32)cc1 | 24.8 µM (inactive) | 24.7 µM (inactive) | 34.5 µM (inactive) | – | 36.7 µM (inactive) | 27.2 µM (inactive) | 27.4 µM (inactive) | 29.6 µM (inactive) | 19.4 µM (inactive) | 21.6 µM (inactive) | < 0.01 µM (active) | 32.7 µM (inactive) | 61.2 µM (inactive) | 23.2 µM (inactive) | 40.2 µM (inactive) | 49.8 µM (inactive) | 24.7 µM (inactive) | 27 µM (inactive) | 51.5 µM (inactive) |
| NC(=O)CNC(=O)C1CC(O)CN1C(=O)C1CCCN1C(=O)OCc1ccccc1 (stereo not drawn) (Cbz-Pro-[Hyp]-Gly-NH2; configuration not given here) | > 100 µM (inactive) | > 100 µM (inactive) | > 100 µM (inactive) | > 100 µM (inactive) | > 100 µM (inactive) | > 100 µM (inactive) | > 100 µM (inactive) | > 100 µM (inactive) | > 100 µM (inactive) | > 100 µM (inactive) | – | > 100 µM (inactive) | > 100 µM (inactive) | > 100 µM (inactive) | > 100 µM (inactive) | > 100 µM (inactive) | > 100 µM (inactive) | – | > 100 µM (inactive) |
| O=C(NCCN1CCCCC1)c1ccc(I)cc1 | > 100 µM (inactive) | > 100 µM (inactive) | > 100 µM (inactive) | – | 39.5 µM (inactive) | > 100 µM (inactive) | > 100 µM (inactive) | > 100 µM (inactive) | > 100 µM (inactive) | 42.4 µM (inactive) | > 100 µM (inactive) | > 100 µM (inactive) | > 100 µM (inactive) | 89.3 µM (inactive) | > 100 µM (inactive) | > 100 µM (inactive) | > 100 µM (inactive) | 96.4 µM (inactive) | > 100 µM (inactive) |
| CCOC(=O)C1=CC(C)(C(=O)OCC)Nc2c(nc(SC)[nH]c2=O)N1 (stereo not given) | > 10 µM (inactive) | > 10 µM (inactive) | > 10 µM (inactive) | – | > 10 µM (inactive) | > 10 µM (inactive) | > 10 µM (inactive) | > 10 µM (inactive) | > 10 µM (inactive) | > 10 µM (inactive) | > 10 µM (inactive) | > 10 µM (inactive) | > 10 µM (inactive) | > 10 µM (inactive) | > 10 µM (inactive) | > 10 µM (inactive) | > 10 µM (inactive) | > 10 µM (inactive) | > 10 µM (inactive) |
| CCOc1ccc(NCc2cc(OC)c(OC)c(OC)c2)cc1 | 0.12 µM (active) | – | 34.9 µM (inactive) | 0.257 µM (active) | 0.366 µM (active) | 0.324 µM (active) | 0.339 µM (active) | 41.6 µM (inactive) | 0.944 µM (active) | – | 0.486 µM (active) | 2.57 µM (inactive) | – | 1.04 µM (active) | 0.35 µM (active) | 0.513 µM (active) | 4.8 µM (inactive) | 5.43 µM (inactive) | – |
| COc1cc2c[n+](C)c3c4cc(OC)c(OCc5ccccc5)cc4c(OCc4ccccc4)cc3c2cc1OC | 2.21 µM (inactive) | 4.68 µM (inactive) | 38.5 µM (inactive) | – | 3.61 µM (inactive) | 84.7 µM (inactive) | 2.51 µM (inactive) | 4.11 µM (inactive) | 25.7 µM (inactive) | 12.1 µM (inactive) | 2.57 µM (inactive) | 5.48 µM (inactive) | 4.03 µM (inactive) | 4.46 µM (inactive) | 3.18 µM (inactive) | 0.449 µM (active) | > 100 µM (inactive) | 1.84 µM (inactive) | > 29.6 µM (inactive) |
| COc1cc2c(cc1OCCN1C(=O)c3cccc4cccc(c34)C1=O)N=C[C@@H]1CCCN1C2=O | 9.82 µM (inactive) | 0.236 µM (active) | 9.68 µM (inactive) | – | 9.46 µM (inactive) | 15.8 µM (inactive) | 6.68 µM (inactive) | 16 µM (inactive) | 9.27 µM (inactive) | 7.8 µM (inactive) | 9.12 µM (inactive) | 8.95 µM (inactive) | 7.93 µM (inactive) | 13.3 µM (inactive) | 7.66 µM (inactive) | 6.15 µM (inactive) | 8.87 µM (inactive) | 7.76 µM (inactive) | 10.9 µM (inactive) |
| Cc1ccc2nc3[nH]nc(N)c3nc2c1 | 67 µM (inactive) | > 100 µM (inactive) | 20.9 µM (inactive) | – | > 100 µM (inactive) | > 100 µM (inactive) | > 100 µM (inactive) | > 100 µM (inactive) | 72.6 µM (inactive) | 60 µM (inactive) | > 100 µM (inactive) | > 100 µM (inactive) | > 100 µM (inactive) | 64 µM (inactive) | > 100 µM (inactive) | > 100 µM (inactive) | 52 µM (inactive) | 87.1 µM (inactive) | > 100 µM (inactive) |
| CC1(c2ccccc2)CCN(C2CC2)CO1 (stereo not given) | 18.3 µM (inactive) | 32.4 µM (inactive) | 20.1 µM (inactive) | 45.2 µM (inactive) | 17.9 µM (inactive) | 20.7 µM (inactive) | 17.7 µM (inactive) | 18.8 µM (inactive) | 19.8 µM (inactive) | 26.9 µM (inactive) | – | 19.7 µM (inactive) | 16.8 µM (inactive) | 64.9 µM (inactive) | 19 µM (inactive) | > 100 µM (inactive) | 18.5 µM (inactive) | – | 17.5 µM (inactive) |
| CC1=NN=C(N)NC1=CC(Sc1ccc(Cl)cc1)c1c(O)ccc2ccccc12 (stereo not given) | 13.6 µM (inactive) | 4.73 µM (inactive) | 18 µM (inactive) | > 10 µM (inactive) | 20.5 µM (inactive) | 20.2 µM (inactive) | – | 16.8 µM (inactive) | 13.5 µM (inactive) | 4.75 µM (inactive) | – | 14 µM (inactive) | 19 µM (inactive) | 18.6 µM (inactive) | 24.8 µM (inactive) | 18.3 µM (inactive) | 6.07 µM (inactive) | 20.3 µM (inactive) | 23.1 µM (inactive) |
| C=C1c2nc3ccccc3n2C=C(c2ccccc2)N1c1ccc(C)cc1 | 49.9 µM (inactive) | 55.6 µM (inactive) | > 100 µM (inactive) | – | – | 37.7 µM (inactive) | 75 µM (inactive) | 71.8 µM (inactive) | 19.5 µM (inactive) | 59.6 µM (inactive) | 63.8 µM (inactive) | – | 85.5 µM (inactive) | > 100 µM (inactive) | 71.1 µM (inactive) | 88.1 µM (inactive) | 36.1 µM (inactive) | 41.4 µM (inactive) | > 100 µM (inactive) |
| c1cc(-c2ccc(-c3ccc(-c4ccc(-c5cccc6nsnc56)[nH]4)c4nsnc34)[nH]2)c2nsnc2c1 | > 100 µM (inactive) | > 100 µM (inactive) | > 100 µM (inactive) | 1.53 µM (inactive) | > 100 µM (inactive) | > 100 µM (inactive) | > 100 µM (inactive) | > 100 µM (inactive) | > 100 µM (inactive) | – | – | > 100 µM (inactive) | > 100 µM (inactive) | > 100 µM (inactive) | > 100 µM (inactive) | > 100 µM (inactive) | > 100 µM (inactive) | > 100 µM (inactive) | > 100 µM (inactive) |
| CCCCn1c2c(c3ccccc3c1=O)C(=O)c1ccccc1-2 | > 100 µM (inactive) | > 100 µM (inactive) | > 100 µM (inactive) | 4.28 µM (inactive) | 13.3 µM (inactive) | > 100 µM (inactive) | > 100 µM (inactive) | 1.82 µM (inactive) | > 100 µM (inactive) | – | 49.1 µM (inactive) | > 100 µM (inactive) | > 100 µM (inactive) | 37.2 µM (inactive) | > 100 µM (inactive) | 66.1 µM (inactive) | 2.79 µM (inactive) | > 100 µM (inactive) | > 100 µM (inactive) |
| COc1ccc2cc(C(=O)O)ccc2c1OC | > 100 µM (inactive) | > 100 µM (inactive) | – | > 100 µM (inactive) | > 100 µM (inactive) | > 100 µM (inactive) | > 100 µM (inactive) | – | – | – | > 100 µM (inactive) | – | > 100 µM (inactive) | 43 µM (inactive) | > 100 µM (inactive) | > 100 µM (inactive) | > 100 µM (inactive) | – | > 100 µM (inactive) |
| CN(C1=NCCO1)c1cccc2c1CCCC2 | 9.53 µM (inactive) | 1.15 µM (inactive) | 8.55 µM (inactive) | 4.41 µM (inactive) | 2.43 µM (inactive) | 3.6 µM (inactive) | – | 3.05 µM (inactive) | 5.93 µM (inactive) | 3.64 µM (inactive) | 3.25 µM (inactive) | 6.01 µM (inactive) | 3.08 µM (inactive) | – | > 10 µM (inactive) | 3.57 µM (inactive) | – | – | 3.9 µM (inactive) |
